Source: US11690396B2, “Electronic cigarette compositions, devices, and related methods” (ZANOPRIMA LIFESCIENCES LIMITED, priority 2018, dated 2023)
Converted amounts (≈) assume the structure as drawn.

Columns and labels:
[1] = Solubility of carbon dioxide in nicotine solutions (Example 3, weight change); assay type: physicochemical
Procedure: Into weighed plastic 500 ml bottles containing approximately 50 g of a solution of nicotine in glycerol/propylene glycol according to Table 3 were added 4-5 g solid carbon dioxide (dry-ice), sufficient to raise the pressure to 4-5 bar. The mixtures were held under pressure for 3 days before the pressure was released, and the mixtures were then stood at ambient temperature for 48 hours and then the new weight of the solution measured. The change in weight before and after addition of the CO2 enable the amount of CO2 incorporated into the solution to be derived, as well as the molar ratio of CO2 to nicotine.

[2] = Solubility of carbon dioxide in nicotine solutions with low propylene glycol (Example 5); assay type: physicochemical; conditions: for Added CO2: ~50.0 g solution, average of two experiments
Text: Using the same methodology as that of Example 3, solutions of nicotine in glycerol, nicotine, water, and propylene glycol (if present) were made as detailed in the Table 4. In Table 4, propylene glycol is referred to as “PG”. The propylene glycol, when present, originated from the addition of a tobacco flavouring composition. The tobacco flavouring composition, referred to in Table 4 as “TF”, (made up of tobacco flavouring dissolved/dispersed in propylene glycol) included propylene glycol at 65% by weight. […] For each experiment, the solution used was within 0.2 g of 50.0 g. As with Example 3, the solutions were weighed before and after the addition of the CO2, and the change in weight before and after addition of the CO2 enabled the amount of CO2 incorporated into the solution to be derived. The amount of carbon dioxide reported as being incorporated into solution is the average result achieved across two experiments.

[3] = glycerol 78.3, nicotine 5, water 8.7, TF 8, PG 5.2 wt %
[4] = glycerol 81, nicotine 2, water 9, TF 8, PG 5.2 wt %
[5] = glycerol 82.65, nicotine 5, water 4.35, TF 8, PG 5.2 wt %
[6] = glycerol 85.5, nicotine 2, water 4.5, TF 8, PG 5.2 wt %
[7] = glycerol 85.5, nicotine 5, water 9.5, TF 0, PG 0 wt %
[8] = glycerol 88.2, nicotine 2, water 9.8, TF 0, PG 0 wt %
[9] = glycerol 90.25, nicotine 5, water 4.75, TF 0, PG 0 wt %
[10] = glycerol 93.1, nicotine 2, water 4.9, TF 0, PG 0 wt %

SMILES: O=C=O [CO2, carbon dioxide]
- Solubility CO2 ([1]; 70:30 glycerol:propylene glycol, nicotine 0 g/kg, 4-5 bar 3 days, then 48 h ambient): 3.8 g/kg
- Added CO2 ([1]; 70:30 glycerol:propylene glycol, nicotine 0 g/kg, 50.00 g solution, 4-5 bar 3 days, then 48 h ambient): 0.19 g
- Solubility CO2 ([1]; 70:30 glycerol:propylene glycol, nicotine 0 g/kg, estimated density 1.19 kg/L): 4.5 mg/mL (≈ 102 mM)
- Molar ratio CO2/nicotine ([1]; 70:30 glycerol:propylene glycol, nicotine 4 g/kg (0.4%)): 8.77 mol/mol
- Added CO2 ([1]; 70:30 glycerol:propylene glycol, nicotine 4 g/kg (0.4%), 49.96 g solution, average of two results): 0.48 g
- Solubility CO2 ([1]; 70:30 glycerol:propylene glycol, nicotine 4 g/kg (0.4%), average of two results): 9.5 g/kg
- Solubility CO2 ([1]; 70:30 glycerol:propylene glycol, nicotine 4 g/kg (0.4%), estimated density 1.19 kg/L): 11.3 mg/mL (≈ 257 mM)
- weight increase (CO2 incorporated) ([1]; comparative: 20 g pure nicotine charged similarly with carbon dioxide): did not result in any weight increase at all
- Solubility of CO2 [2, 3]: 13 g/kg
- Solubility of CO2 ([2]; glycerol 78.3, nicotine 5, water 8.7, TF 8, PG 5.2 wt %, estd density 1.21 kg/l): 16 mg/mL
- Added CO2 [2, 3]: 0.66 g
- Solubility of CO2 [2, 4]: 12 g/kg
- Solubility of CO2 ([2]; glycerol 81, nicotine 2, water 9, TF 8, PG 5.2 wt %, estd density 1.21 kg/l): 14 mg/mL
- Added CO2 [2, 4]: 0.58 g
- Solubility of CO2 [2, 5]: 16 g/kg
- Solubility of CO2 ([2]; glycerol 82.65, nicotine 5, water 4.35, TF 8, PG 5.2 wt %, estd density 1.22 kg/l): 19 mg/mL
- Added CO2 [2, 5]: 0.79 g
- Solubility of CO2 [2, 6]: 11 g/kg
- Solubility of CO2 ([2]; glycerol 85.5, nicotine 2, water 4.5, TF 8, PG 5.2 wt %, estd density 1.23 kg/l): 13 mg/mL
- Added CO2 [2, 6]: 0.54 g
- Solubility of CO2 [2, 7]: 16 g/kg
- Solubility of CO2 ([2]; glycerol 85.5, nicotine 5, water 9.5, TF 0, PG 0 wt %, estd density 1.22 kg/l): 20 mg/mL
- Added CO2 [2, 7]: 0.82 g
- Solubility of CO2 [2, 8]: 11 g/kg
- Solubility of CO2 ([2]; glycerol 88.2, nicotine 2, water 9.8, TF 0, PG 0 wt %, estd density 1.23 kg/l): 14 mg/mL
- Added CO2 [2, 8]: 0.56 g
- Solubility of CO2 [2, 9]: 18 g/kg
- Solubility of CO2 ([2]; glycerol 90.25, nicotine 5, water 4.75, TF 0, PG 0 wt %, estd density 1.24 kg/l): 23 mg/mL
- Added CO2 [2, 9]: 0.91 g
- Solubility of CO2 [2, 10]: 10 g/kg
- Solubility of CO2 ([2]; glycerol 93.1, nicotine 2, water 4.9, TF 0, PG 0 wt %, estd density 1.25 kg/l): 13 mg/mL
- Added CO2 [2, 10]: 0.51 g
